{"source": "patent US4849410A", "about": "“Pseudopterosin and synthetic derivatives thereof” (The Regents of the University of California, priority 1987, dated 1989)", "key": {"[1]": {"test_system": "PMA induced swelling of the mouse ear", "assay": "Anti-Inflammatory Assay (systemic administration)", "assay_type": "in vivo, male Swiss Webster mice", "method": "Anti-Inflammatory Assay (systemic administration)\n2 ug PMA was applied in 25 ul of acetone to the inner surface of the left ear of male Swiss Webster mice (4 to 6 weeks old), the right ear is treated with acetone only. […] 200 minutes after PMA treatment, the mice were killed by cervical dislocation and both ears were cut off, punched with a #4 cork borer and weighed. The swelling induced by PMA was calculated as the increase in the weight of the left ear minus the right ear. The percent inhibition of edema was calculated as control-drug/control×100. […] ED50 values were estimated by the method of Litchfield and Wilcoxon."}, "[2]": {"test_system": "PMA induced swelling of the mouse ear", "assay": "Anti-Inflammatory Assay (topical administration)", "assay_type": "in vivo, mice", "method": "Anti-Inflammatory (topical administration)\n2 ug PMA was applied in 25 ul of acetone of the inner surface of the left ear, the right ear is treated with solvent only. […] 200 minutes after PMA treatment, the mice were killed by cervical dislocation and both ears were cut off, punched with a #4 cork borer and weighed. The swelling induced by PMA was calculated as the mean increase in the weight of the left ear minus the right ear. The pecent inhibition of edema was calculated as control-drug/control×100. […] ED50 values were estimated by the method of Litchfield and Wilcoxon."}, "[3]": {"test_system": "highly metastatic subline (F10) of B16 melanoma", "assay": "Antiproliferative effects on tumor cells growing in tissue culture", "assay_type": "cell-based", "conditions": "continuous exposure; read-out: concentration that inhibited proliferation by 50 percent", "method": "Compound I was also tested for antiproliferative effects on tumor cells growing in tissue culture."}, "sea urchin sperm": {"test_system": "sea urchin sperm", "assay": "Sperm Motility Assay", "assay_type": "cell-based", "conditions": "16 microgram/ml (10^-5 m)", "method": "Male sea urchins are induced to spawn by injection of 0.5M KCl into the coelomic cavity. Sperm is collected via a pasteur pipette and stored in a test tube on ice. One drop of undiluted sperm is added to 25 ml of filtered fresh seawater, then 1.0 ml volumes of this solution are immediately added to test tubes containing 10 microliter test solution. Aliquots of sperm from each tube are observed microscopically for motility at a time two minutes after addition of sperm to test solution.\n(§1) The vheicle or carrier for the compounds used in the inflammatory and analgesic assays was as follows; For the mouse ear inflammatory assay, the vehicle was acetone. Controls received 25 microliters of acetone. Test compounds were applied to the experimental animals in 25 microliter volumes. For the sperm motility and fertilized sea urchin egg assays, the compounds were dissolved in 10 microliters undenatured ethanol."}, "[4]": {"assay": "Side effects and mortality, intraperitoneal administration to mice", "assay_type": "in vivo", "conditions": "for Mortality: on day after administration", "method": "Doses up to 50 mg/kg administered intraperitoneally to mice have no effect. […] Mortality at 100 mg/kg=2/10 on day after administration, at 200 mg/kg=2/4 also on day after administration."}, "[5]": {"assay": "Toxicity of single intraperitoneal doses", "assay_type": "in vivo, female B6D2F1 mice", "method": "The toxicity of single intraperitoneal (ip) doses of Compound I in female B6D2F1 mice were evaluated. Doses of up to 150 mg/kg produced no lethality but signs of CNS toxicity were evident at doses greater than or equal to 77 mg/kg."}, "[6]": {"test_system": "Phorbol Myristate Acetate (PMA) Induced Topical Inflammation of the Mouse Ear", "assay": "Mouse Ear Anti-Inflammatory Assay (PMA, topical)", "assay_type": "in vivo", "conditions": "for Ear Weight Mean ± S.E.M.: PMA 1.5 ug", "method": "a. Mouse Ear Anti-Inflammatory Assay\nTest compound and phorbol myristate acetate (PMA) are topically applied simultaneously to the pinnae of the ears of mice. Three hours twenty minutes after application, mice are sacrificed, ears removed and standard sized bores taken. Edema (inflammation) is measured as the difference in weight between control and treated ears.\nas §1"}, "[7]": {"test_system": "Arachidonic Acid (A.A.) Induced Topical Inflammation of the Mouse Ear", "assay": "Arachidonic acid induced topical inflammation of the mouse ear", "assay_type": "in vivo", "conditions": "A.A. 25.0 ug; 50.0 ug/ear"}, "[8]": {"assay": "CNS activity and toxicity in the comparative tests", "conditions": "during the anti-inflammatory assay"}, "[9]": {"conditions": "100 mg/kg and above intraperitoneally"}}, "data": [{"smiles": "CC(C)=C[C@H]1C[C@H](C)[C@H]2CC[C@H](C)c3c(O[C@@H]4OC[C@@H](O)[C@H](O)[C@H]4O)c(O)c(C)c1c32", "note": "[Compound I, pseudopterosin A]", "values": [{"measurement": "% Inhibition (edema)", "setting": "[1]; 6.25 mg/kg", "result": 0, "unit": "%"}, {"measurement": "% Inhibition (edema)", "setting": "[1]; 12.5 mg/kg", "result": 24.4, "unit": "%"}, {"measurement": "% Inhibition (edema)", "setting": "[1]; 25 mg/kg", "result": 43.8, "unit": "%"}, {"measurement": "% Inhibition (edema)", "setting": "[1]; 50 mg/kg", "result": 46.5, "unit": "%"}, {"measurement": "% Inhibition (edema)", "setting": "[1]; 100 mg/kg", "result": 90.4, "unit": "%"}, {"measurement": "% Inhibition (edema)", "setting": "[2]; 6.25 ug/ear", "result": 28.8, "unit": "%"}, {"measurement": "% Inhibition (edema)", "setting": "[2]; 12.5 ug/ear", "result": 78.3, "unit": "%"}, {"measurement": "% Inhibition (edema)", "setting": "[2]; 25 ug/ear", "result": 89.5, "unit": "%"}, {"measurement": "% Inhibition (edema)", "setting": "[2]; 50 ug/ear", "result": 96.0, "unit": "%"}, {"measurement": "ED50", "setting": "[2]; 50% inhibition of inflammation, n = 10 mice/dose", "result": 8.3, "unit": "ug/ear"}, {"measurement": "IC50", "setting": "[3]", "result": 42, "unit": "µM"}, {"measurement": "inhibition of sperm motility", "setting": "sea urchin sperm", "result": "totally inhibits"}, {"measurement": "return to normal activity", "setting": "[4]; [9]", "result": "≤ 30", "unit": "min"}, {"measurement": "side effects", "setting": "[4]; [9]", "result": "mild excitation and writhing in some animals"}, {"measurement": "Mortality", "setting": "[4]; 100 mg/kg", "result": "2/10"}, {"measurement": "Mortality", "setting": "[4]; 200 mg/kg", "result": "2/4"}, {"measurement": "side effects", "setting": "[4]; up to 50 mg/kg intraperitoneally", "result": "no effect"}, {"measurement": "dose at which signs of CNS toxicity were evident", "setting": "[5]; single ip dose", "result": "greater than or equal to 77 mg/kg"}, {"measurement": "Symptoms of CNS toxicity", "setting": "[5]; single ip doses >= 77 mg/kg", "result": "hypersensitivity to external stimuli and shivering"}, {"measurement": "lethality", "setting": "[5]; single ip doses of up to 150 mg/kg", "result": "no lethality"}, {"measurement": "decrease in edema", "setting": "[6]; 50 microgram", "result": 69, "unit": "%"}, {"measurement": "Ear Weight Mean ± S.E.M.", "setting": "[6]; 6.25 ug/ear", "result": "16.78 ± 0.91", "unit": "mg"}, {"measurement": "Ear Weight Mean ± S.E.M.", "setting": "[6]; 12.5 ug/ear", "result": "14.99 ± 0.6", "unit": "mg"}, {"measurement": "Ear Weight Mean ± S.E.M.", "setting": "[6]; 25.0 ug/ear", "result": "13.18 ± 0.53", "unit": "mg"}, {"measurement": "Ear Weight Mean ± S.E.M.", "setting": "[6]; 50.0 ug/ear", "result": "12.47 ± 0.46", "unit": "mg"}, {"measurement": "Ear Weight Mean ± S.E.M.", "setting": "[6]; 100.0 ug/ear", "result": "11.70 ± 0.37", "unit": "mg"}, {"measurement": "Anti-inflammatory Activity", "setting": "[6]; summary", "result": "Active"}, {"measurement": "Ear Weight Mean ± S.E.M.", "setting": "[7]", "result": "13.33 ± 0.38", "unit": "mg"}, {"measurement": "CNS stimulation", "setting": "[8]", "result": "exhibited the CNS stimulation"}]}]}
